For 88 compounds, melting point results are on record in a melting point compilation (Tetko et al.; mined from patent text by program, amines drawn as free bases though some values may be those of a salt).

Turning to `CONC(=O)c1cc(C)c(C(c2cc(F)ccc2F)S(=O)(=O)c2ccc(F)cc2)cn1` (stereo not drawn), the melting point lay in the range of 231 to 234 °C.
As for `O=C(OCC=Cc1ccccc1)c1cccc2nnsc12`, the figure is 70 to 72 °C; as for `CCOc1cc2ncc(C#N)c(Nc3cccc(Cl)c3)c2cc1OCC`, 188 to 190 °C.
`FC(F)(F)c1ccc(-c2cc3[nH]ccn3n2)cc1` returned a melting point of 134 to 135 °C.
For `CN(c1cccc2cc(C3=NCC(CCNc4nnc[nH]4)S3)[nH]c12)S(=O)(=O)c1cccs1` (stereo not drawn) the value was 195 °C; for `COc1cc(Cc2c(N)nc(N)nc2O)cc(OC)c1OC`, 275 to 276 °C; for `CS(=O)c1ccc(Oc2ccc([N+](=O)[O-])cc2C#N)cc1` (stereo not drawn), 159 to 160 °C.
As for `O=C(N[C@H]1CCN(C(=O)c2cc(Cl)cc(Cl)c2)[C@H](Cc2ccccc2)C1)c1cc2ccccc2[nH]1` (relative stereo), the figure is 254 °C; as for `COC(=O)[C@@H]1CCCN1C(=O)CCC(=O)c1ccc(Br)cc1`, 78 to 82 °C.
Take `Cc1c(CO)cc(-c2ccc(S(C)(=O)=O)cc2)n1-c1ccc(F)cc1`: the melting point is 140 to 142 °C.
The compound `CC(=O)SCC(C(=O)NC(C)C(=O)OCc1ccccc1)C1CCc2ccccc21` (stereo not drawn) registered a melting point of 95 °C.
As for `O=[N+]([O-])c1ccc(C=[N+]([O-])c2cccc(CO)c2)cc1`, the melting point was 207 to 209 °C.
As for `O=C1Nc2cccnc2N(C(=O)NCCN2CCCCC2CN2CCOCC2)c2ccccc21` (stereo not drawn), the figure is 167 °C; as for `CC(NC(=O)c1cc(Cl)ccc1[N+](=O)[O-])C1CC1` (stereo not drawn), 137 to 141 °C; as for `Brc1ccc(-n2c(-c3ccccc3)ccc2-c2ccccc2)cc1`, 218 to 219 °C.
In turn, `CCCCCCCC(=O)OC(C)OC1=C(C(=O)Nc2ccccn2)N(C)S(=O)(=O)c2ccccc21` (stereo not drawn) yielded a melting point of 90 to 91 °C.
The compound `Oc1ccc(Cl)cc1C(c1cc(Cl)ccc1O)C(F)(F)F` came in with a melting point of 144 °C.
For `CCCCCCCC(=O)OCCc1c(-c2ccccc2)nc(N)n2ncnc12` the value was 89 to 91 °C; for `Nc1nc(/C(=N/OCC(=O)N2CCCCC2)C(=O)O)cs1`, 177 °C.
Take `CC(c1oc2ccccc2c(=O)c1-c1cccc(F)c1)n1nc(-c2ccc(N(C)C)cc2)c2c(N)ncnc21` (stereo not drawn): the melting point fell in the range of 214 to 217 °C.
In the case of `CC(C)(C)c1ccc(Cn2c3c(c4cc(OCc5ccccc5)ccc42)C(=O)C(=O)OC3)cc1`, the melting point fell in the range of 233 to 234 °C.
For `COCC(=O)Nc1cccc2c1C(=O)N(C1(C)CCC(=O)NC1=O)C2=O` (stereo not drawn) the value was 244 to 246 °C.
Compound `CC(=O)Cc1ccc(Oc2ccc(Cl)cc2)cc1` gave a melting point of 50 to 52 °C.
For the compound `CCCCCOc1ccc(OCC(O)CC#CCCCC(=O)O)cc1` (stereo not drawn), the melting point is 58 to 60 °C.
Compound `Cc1nc2c(O)c(CCC(=O)c3ccccc3)c(C(=O)N3CCC3)cc2n1C` registered a melting point of 242 to 243 °C.
Regarding `C[C@H]1[C@@H]2C(=O)N(Cc3ccccc3)C(=O)[C@@H]2[C@H](c2ccc(C#N)cc2)N1C` (racemic), the melting point fell in the range of 188 to 190 °C.
As for `Cc1ccc2c3c(c(Cl)nc2c1)C(=O)c1ccccc1-3`, the melting point is 208 to 211 °C.
`Cc1ccc(C2CC(n3cncn3)c3ccccc3N2)cc1` (stereo not drawn) showed a melting point of 146 to 148 °C.
As for `CCOC(=O)C1CCN(c2cc(C)nc3c2c(C)cn3-c2c(C)cc(Cl)cc2C)CC1`, the figure is 140 to 142 °C.
Consider `CCOC(=O)C(=NOC)C1=CSc2ccccc2S1`, for which the melting point was in the range of 78 to 81 °C.
For `O=c1c2ccc(Cl)cc2[nH]c2c(O)nn(-c3ccc(Cl)cc3Cl)c(=O)c12` the value was 360 to 361 °C.
For the compound `CC(C)CNS(=O)(=O)c1ccc(N)c(C(=O)N2CCN(C)CC2)c1`, the melting point was in the range of 162 to 163 °C.
As for `CS(=O)(=O)c1ccc(-c2nc(C(F)(F)F)nc(Cl)c2-c2ccc(F)cc2)cc1`, the figure is 195 to 197 °C; as for `Brc1ccc(N=C(c2ccccc2)c2ccccc2)cc1`, 82 to 83 °C; as for `CCn1c(C=O)cnc1[N+](=O)[O-]`, 38 to 40 °C.
The compound `CCCCN(Cc1ccc(Cl)cc1)c1cncnc1` had a melting point of 67 to 68 °C.
Regarding `CC(C(=O)O)c1ccc2c(c1)C(=O)C(C(C)C)C2` (stereo not drawn), the melting point lay within 130 to 132 °C.
For `N#CCOC(=O)CCCCc1c[nH]c2ccccc12`, the melting point stood at 76 °C.
In the case of `Cc1ccc(SCc2noc(-c3ccccc3)n2)cc1`, the melting point is 71 °C.
With `Cc1ccccc1-c1c2c(cc3ccc(O)cc13)-c1ccc(O)cc1CO2`, the melting point was 193 to 196 °C.
For the compound `O=C(C=Cc1ccc2c(c1)OCO2)c1cccc(O)c1`, the melting point lay within 188 to 189 °C.
With `O=C(Nc1cccnn1)N1CCN(c2cc(-c3ccc(F)cc3F)ncn2)CC1`, the melting point was in the range of 249 to 250 °C.
For `C[C@@H](n1cnc2cc(NC(=O)C(F)(F)F)c(F)cc2c1=O)[C@](O)(Cn1cncn1)c1ccc(F)cc1F` the value was 130 to 132 °C.
For `C=C(C)C(=O)c1nc(S(=O)C(C)C)n(-c2ccc(CC)cc2)c1Cl` (stereo not drawn), the melting point is 83 to 84 °C.
Regarding `O=c1[nH]c2cc(C(F)(F)F)c(-n3ccnc3)cc2n2c(=S)[nH]nc12`, the melting point was > 300 °C.
As for `CC(N1C(=O)C(=O)N(c2ccc(C#N)cc2)C1=S)C(C)(C)C` (stereo not drawn), the figure is 198 °C; as for `CN1C(=O)CN=C(c2ccccc2F)c2c1cc(Cl)c(NC(=O)C(F)(F)F)c2Cl`, 238 to 240 °C; as for `Cc1ccc2c3c(c(=O)oc2c1)CN(Cc1ccc(Cl)cc1)CC3`, 147 to 149 °C.
In turn, `CC(=O)NC[C@H]1CN(c2ccc(C(=O)c3cnc4cnccn34)cc2)C(=O)O1` returned a melting point of 254 to 256 °C.
In turn, `CC(C)(CNc1ccnc2cc(Cl)ccc12)NCc1ccc(F)c(Cl)c1` had a melting point of 164 to 165 °C.
As to `O=C(NCc1ccccc1Cl)c1ccc2cnccc2n1`, the melting point fell in the range of 120 to 121 °C.
Regarding `CCCCOC(=O)c1ccc(-c2cc(-c3ccc4c(c3)C(C)(C)CCC4(C)C)nc(O)n2)cc1`, the melting point was 267 to 277 °C.
Consider `COc1ccc(-c2ccc(=O)n(Cc3nc4cc(F)ccc4o3)c2)cc1`, for which the melting point was 115 °C.
`CC(C)(C)c1ccc(NC(=O)N2CCC3(CC2)CC(CCc2ccccc2)=NO3)cc1` showed a melting point of 153 to 154 °C.
In turn, `Cc1cccc2c1nc(COc1ccc(Cl)cc1)n2CCC(C)CNCc1ccccc1` (racemic) displayed a melting point of 84.5 to 87 °C.
The compound `CC(C)(S)CN1C(=O)NC(=O)C1=O` gave a melting point of 168 to 170 °C.
`CC(C)(C)OC(=O)N1C[C@@H](F)C[C@H]1C(=O)O` came in with a melting point of 158 to 159 °C.
For `CN(C)c1ncc(-c2cccc(-n3cnc4cc(-c5ccco5)ccc43)c2)cn1` the value was 170 to 172 °C; for `C[C@@H]1C(=O)C[C@H]2C[C@@H]1OO[C@@]2(C)/C=C\c1cccc(C(F)(F)F)c1`, 101 °C.
Turning to `C[C@H](N=C(C(=O)N[C@@H](C)c1ccccc1)C(C)(C)C)c1ccccc1`, the melting point is 96 to 97 °C.
In turn, `COc1ccc(-c2cccc3c2C2(COc4cc5c(cc42)OCO5)C(=O)N3Cc2ccc(C(F)(F)F)o2)cn1` (stereo not drawn) registered a melting point of 174 to 176 °C.
For `O=C(C=Cc1ccccc1)NNC(=O)C=Cc1ccccc1` the value was 267 to 268 °C.
`CC(C)(C(=O)Cl)C(=S)Cl` returned a melting point of 112 to 114 °C.
`Cc1sccc1C(=O)O` registered a melting point of 71 to 73 °C.
The compound `COc1ccc(-c2nc(NC(=N)N)sc2-c2ccc(OC)cc2)cc1` gave a melting point of 121 to 130 °C.
`CCOc1cccc(N2C(=O)C(=CN(C)C)c3ccccc32)c1` showed a melting point of 99 to 102 °C.
As to `Cc1cc(=O)oc2c(C)c3c(cc12)CCCO3`, the melting point is 162 to 163 °C.
For `Clc1ncnc2c1ncn2-n1cccc1` the value was 204 to 206 °C; for `C=CCn1c(C(F)(F)F)nc2ccc(-n3c(=O)cc(C(F)(F)F)n(C)c3=O)cc21`, 171 to 173 °C.
Consider `COc1ccc(C(C)=O)cc1C12CC3CC(CC(C3)C1)C2`, for which the melting point lay within 138 to 140 °C.
For `COCCNC(=O)c1cccc(-c2nc(=O)c3ccccc3s2)n1` the value was 176 to 177 °C; for `O=Cc1ccc(OCCBr)c2ccccc12`, 83 to 84 °C.
For the compound `CC1=NOC(c2c(S(C)(=O)=O)ccc(C(=O)C3=C(O)CCCC3=O)c2C)C1` (stereo not drawn), the melting point lay in the range of 135 to 140 °C.
In the case of `CN(C)c1cccc(C(=O)COc2cccc(Cl)c2)c1`, the melting point was 70 to 72 °C.
As for `Nc1ccc(S(=O)(=O)c2cc(-c3ccc4ccccc4c3)nc(N3CCCC3)c2)cc1`, the figure is 244 to 246 °C; as for `NC(=O)c1ccccc1OCC1CC1`, 102 to 105 °C.
Take `O=C(Cc1ccccc1Nc1c(Cl)cccc1Cl)OCCOCCO[N+](=O)[O-]`: the melting point worked out at 73 °C.
For `COc1ccc(Oc2cccc(Cl)n2)cc1` the value was 63 to 65 °C; for `Cc1ccc(O)c(Cn2c(NCCCN3CCOCC3)nc3ccc(CNc4c(C)cc(CCC#N)cc4C)cc32)n1`, 114 °C; for `Cc1cc(SC2=C(O)CC(CCc3ccc(O)cc3)(C3CCCC3)OC2=O)c(C(C)(C)C)cc1N` (stereo not drawn), 133 to 135 °C.
In turn, `CC(=Nc1ccccc1)NC(=S)NCc1cccnc1` showed a melting point of 143 to 144 °C.
For `COP(=O)(Cc1c2ccccc2cc2ccccc12)OC` the value was 152 to 153 °C; for `CC(=O)Nc1ccc(OCC(F)(F)F)cc1[N+](=O)[O-]`, 117 to 118 °C.
`CCCc1nc(NCc2ccco2)nc(Nc2cccc(C(F)(F)F)c2)n1` returned a melting point of 110 to 112 °C.
For `CC(=O)c1ccc(S(=O)(=O)NCC(=O)O)cc1` the value was 213 to 215 °C.
Consider `CC(C)(C)OC(=O)N1CCC[C@H](COc2ccccc2O)C1`, for which the melting point lay in the range of 98 to 101 °C.
Turning to `CC(C)n1nc(-c2sc(NC=O)nc2-c2ccccc2)ccc1=O`, the melting point is 232 to 234 °C.
As for `O=c1[nH]nc(-c2ccc(NN=C(c3ccc(O)cc3O)c3ccc(O)cc3O)cc2)c2ccccc12`, the melting point was 140 to 146 °C.

Broadly, the melting point is the temperature, or range, at which the solid turns liquid.
